“Also recorded” adds a separate entry of the source. Where two headings read alike, the source gives them in different places.
Tests used:
[1] = tested on: NO production in IFN-γ/LPS-stimulated RAW 264.7 macrophages; experiment: NO suppression (Griess nitrite determination) in IFN-γ/LPS-stimulated RAW 264.7 macrophages; type: cell-based, murine; conditions: for NO Inhibition at 50 µM (%) ± S.E.M: 50 µM test concentration; for inhibition at 50 µM: RAW264.7, 50 µM test concentration, read-out: NO Inhibition at 50 µM (%) ± S.E.M
In short: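 RAW 264.7 cells were stimulated with […] plus 1 ng/ml IFN-γ for 17 h with or without compound, screened at 50 µM, with IC50 then determined. Nitrite in supernatant was measured by Griess reagent (OD 550 nm), and MTT was run to exclude cytotoxicity.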

[2] = Cell cytotoxicity determination (MTT assay); type: cell-based, murine; conditions: mouse, RAW 264.7 macrophage cells, RAW 264.7 cells, read-out: Cytotoxicity IC50 (µM) ± S.E.M
In short: (§1)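 Murine RAW 264.7 macrophages grown in DMEM with 10% FBS at 37 °C, 5% CO2; compounds screened at 50 µM alongside IFN-γ/LPS-stimulated NO assay. MTT (5 mg/mL stock) added for 4 h at 37 °C, formazan dissolved in DMSO, absorbance read at 570 nm.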

RAW 264.7 cells = experiment: Cell cytotoxicity determination (MTT assay); type: cell-based, murine; conditions: read-out: Cytotoxicity IC50 (µM) ± S.E.M
In short: as §1

[3] = Chemical stability test (UV-visible spectra in phosphate buffer pH 7.4); type: physicochemical; conditions: 20 μM in phosphate buffer pH 7.4, 1% DMSO, 30 min at 5-min intervals, 25 °C
Procedure: Poor chemical stability of curcumin has been proven as one of the important factors, which cause its low bioavailability. Therefore, in the present study, we further tested the two best compounds (88 and 97) for their chemical stability at physiological pH and compared it to that of curcumin used as reference. The test was carried out by observing the ultraviolet spectral changes of the targeted compounds for 30 minutes with 5-minutes intervals in phosphate buffer (pH 7.4). Figure 8, Figure 9 and Figure 10 depict the ultraviolet changes of curcumin, compound 88 and compound 97, respectively.
Absorbance readings were taken from 300–600 nm using a SpectraMax Plus 384 (Molecular Devices LLC, Sunnyvale, CA, USA). A stock solution of 50 mM curcumin or active compounds 88 and 97 were prepared and diluted by phosphate buffer (pH 7.4), containing 1% dimethyl sulfoxide (DMSO), to a final concentration of 20 μM. The ultraviolet absorption spectra were collected for over 30 min at 5-min intervals at 25 °C. All spectral measurements were carried out in a 1 cm path-length quartz cuvette.

[4] = IFN-γ/LPS-stimulated RAW 264.7 cells
[5] = Mus musculus, IFN-γ/LPS-stimulated RAW 264.7 cells
[6] = Mus musculus, RAW264.7, IFN-γ/LPS-stimulated RAW 264.7 cells, read-out: NO Inhibition IC50 (µM) ± S.E.M

| SMILES | NO Inhibition at 50 µM (%) ± S.E.M [1, 4] [%] | inhibition at 50 µM [1, 5] [%] | IC50 [1, 6] [µM] | IC50 ([1]; Mus musculus, RAW264.7, Table 6, NO suppression IC50 used for QSAR, unit inferred, read-out: IC50) [µM] | IC50 ([1]; Mus musculus, RAW264.7, −log IC50 of NO suppression, read-out: pIC50 (converted)) [µM] | IC50 [2] [µM] | IC50 (RAW 264.7 cells) [µM] | Chemical stability (ultraviolet spectral changes) [3] | IC50 ([1]; IFN-γ/LPS-stimulated RAW 264.7 cells, read-out: NO Inhibition IC50 (µM) ± S.E.M) [µM] |
| --- | --- | --- | --- | --- | --- | --- | --- | --- | --- |
| O=C(/C=C(O)/C=C/c1ccc(O)c(O)c1)c1cc(Cl)ccc1O [Compound 88] | 99.7 ± 1.2 | 99.7 ± 1.15 | 4.89 ± 0.312 | 4.9 ± 0.3 | 4.9 | 56.4 ± 1.19 | 40.9 ± 1.6 | excellent chemical stability; also recorded: no significant changes |  |
| COc1cc(/C=C/C(=O)CC(=O)/C=C/c2ccc(O)c(OC)c2)ccc1O [Curcumin, curcumin, reference compound] | 99.3 ± 0.2 | 99.33 ± 0.2 | 14.7 ± 0.24 |  |  | 28.8 ± 0.77 | 28.8 ± 0.8 | gradually decreased over time | 14.7 ± 0.2 |

Reference: paper PMC6271425, “Synthesis and Sar Study of Diarylpentanoid Analogues as New Anti-Inflammatory Agents” (Molecules, 2014)
